Experimental data: patent US20150274639A1, “METHODS OF USE FOR COMPOSITIONS COMPRISING A BIOCIDAL POLYAMINE” (Curza Global, LLC, priority 2013, published 2015)
Converted amounts (≈) assume the structure as drawn. “And” between values parts separate entries of the source, which are not always exact repeats. Equal entries are not always repeated. Where two headings read alike, the source gives them in different places.

How the values were obtained:
MRSA biofilm [1] = test: MBEC, MBEC Inoculation Tray by Innovotech (to 10^2 CFU/peg in 24 hours); assay type: cell-based, methicillin-resistant Staphylococcus aureus; conditions: Table 4
MRSA biofilm [2] = test: MBEC assay (Calgary Biofilm Device), 100% eradication (Example 2); assay type: cell-based, methicillin-resistant Staphylococcus aureus; conditions: eradicate 100% of detectable biofilm
Method: In addition to determining the MIC, the minimum biofilm eradication concentration (MBEC) of PBC-51 was also determined. The MBEC was determined using the MBEC assay, formerly known as the Calgary Biofilm Device, developed by Innovotech. In this instance, the MBEC was defined as the amount of antimicrobial required to eradicate 100% of detectable biofilm after being grown in the MBEC device. To grow the biofilms within this device, 150 μL of solution containing a concentration of 10^5 cells/mL were inoculated into each well of a 96-well plate. A lid containing 96 pegs was placed onto the plate and incubated for 24 hours at 37° C. while being shaken at 110 rpm. Biofilms developed on the surface of the polystyrene pegs within the 96-well plate. After 24 hours, each peg contained between 10^5 and 10^6 cells in well-established biofilms. The lid with pegs was transferred to a 96-well plate that contained 200 μL of varying concentrations of the compound and was incubated at 37° C. for an additional 24 hours. The plate was then sonicated, and the biofilms quantified using a 10-fold dilution series to determine the MBEC.

MRSA biofilm [3] = test: EBEC on PEEK membranes, 100% eradication (Example 2); assay type: cell-based, methicillin-resistant Staphylococcus aureus; conditions: PEEK membrane, eradicate all detectable amounts (100%)
Method: The fourth test that was performed was the effective biofilm eradication concentration (EBEC). To determine the EBEC, biofilms of MRSA and P. aeruginosa ATCC 27853 were grown on the surface of PEEK membranes using a previously established protocol. Briefly, 500 mL of brain heart infusion (BHI) broth were inoculated with 10^5 cells/mL of MRSA or P. aeruginosa. BHI broth was placed into a membrane biofilm reactor and placed on a hot plate set at 34° C. for 24 hours with a stir bar rotating at 130 rpm. Following the initial 24-hour growth period, a 10% BHI broth solution was flowed through the reactor at a rate of 6.944 mL/min for another 24 hours. After 48 hours of growth, each PEEK membrane had biofilm growth on it. In this experiment, there were ˜2×10^11 cells of MRSA per PEEK membrane and −2×10^10 cells of P. aeruginosa per PEEK membrane. The EBEC was defined as the concentration of the compound that was required to eradicate all detectable amounts (100%) of bacteria within the biofilms.

MRSA = test: MIC in CAMHB, 96-well plate (10^5 to 10^2 CFU/mL in 24 hours); assay type: cell-based, methicillin-resistant Staphylococcus aureus; conditions: Table 4
Method: To determine the MIC of polyamine compounds, the protocol described herein was used.
In brief, a 0.5 McFarland of each bacterial isolate was made. A 0.5 McFarland is a measure of turbidity in a liquid sample that contains approximately 1×10̂^8 CFU/mL. The 0.5 McFarland standard was diluted in cation adjusted Mueller Hinton Broth (CAMHB), and […], of broth were added to a well of a 96-well plate. In addition, 50 μL of CAMHB that contained a desired concentration of antimicrobial were also added to the well for a final volume of 100 and a final concentration of approximately 5×10^4 CFU/well (which equated to approximately 5×10^5 CFU/mL). Each well contained a desired amount of polyamine compound in order to experimentally determine the MIC. Each 96-well plate was incubated at 37° C. for 24 hours. The contents of each well were plated on tryptic soy agar (TSA). TSA plates were incubated for 37° C. for 24 hours after which the number of CFU were counted and used to calculate the CFU/mL that remained after exposure to varying concentrations of compound. This procedure was repeated n=8 times for each concentration of antimicrobial. […]

MRSA biofilm [4] = test: EBEC, high number biofilms on PEEK membranes (10^9 to 10^2 CFU/PEEK membrane in 24 hours); assay type: cell-based, methicillin-resistant Staphylococcus aureus; conditions: for EBEC, MRSA: Table 4
Method: (§1) In addition to determining the MIC and the MBEC of polyamine compounds against planktonic bacteria and low number biofilms, our group wanted to determine the efficacy of polyamine compounds against high number biofilms. To do so, biofilms were grown on the surface of polyetheretherketone (PEEK) membranes using a membrane biofilm reactor. This reactor is similar to the CDC biofilm reactor, but rather than growing biofilms on coupon surfaces, the reactor was modified to hold PEEK membranes. In short, to grow biofilms within this system, 500 mL of brain heart infusion (BHI) broth were inoculated with 1 mL of a 0.5 McFarland. The reactor was placed on a hot plate set at 34° C. and the bacteria were grown under batch conditions for 24 hours. Following this protocol, biofilms typically grow to 10^9 CFU/PEEK membrane. […] A solution of 10% BHI was then flowed through the reactor at a rate of 6.94 mL/min for an additional 24 hours. PEEK membranes were then removed and placed into 2 mL of CAMHB that contained a desired concentration of polyamine compound or antibiotic. The EBEC was defined as the concentration of antimicrobial required to reduce a biofilm from approximately 10^9 CFU/PEEK membrane to approximately 10^2 CFU/PEEK membrane in a 24-hour period.
(§2) In addition to determining the MIC and the MBEC of compounds against planktonic bacteria and low number biofilms, the efficacy of the compounds of the invention against high number biofilms is determined. To do so, biofilms are grown on the surface of PEEK membranes using a membrane biofilm reactor (Williams, D. L., Haymond, B. S. & Bloebaum, R. D. Use of delrin plastic in a modified CDC biofilm reactor. Res J Microbiol 6, 425-429 (2011); Williams, D. L., Woodbury, K. L., Haymond, B. S., Parker, A. E. & Bloebaum, R. D. A modified CDC biofilm reactor to produce mature biofilms on the surface of PEEK membranes for an in vivo animal model application. Curr Microbiol 62, 1657-1663 (2011); Williams, D. L. et al., In Vivo Efficacy of a Silicone—Cationic Steroid Antimicrobial Coating to Prevent Implant-Related Infection. Biomaterials 33, 8641-8656 (2012); Williams, D. L. et al., Experimental model of biofilm implant-related osteomyelitis to test combination biomaterials using biofilms as initial inocula. J Biomed Mat Res A 100, 1888-1900 (2012)). This reactor is similar to the CDC biofilm reactor, but rather than growing biofilms on coupon surfaces, the reactor was modified to hold PEEK membranes. In short, to grow biofilms within this system, 500 mL of brain heart infusion (BHI) broth is inoculated with 1 mL of a 0.5 McFarland. The reactor is placed on a hot plate set at 34° C. and the bacteria grown under batch conditions for 24 hours. A solution of 10% BHI will then be flowed through the reactor at a rate of 6.94 mL/min for an additional 24 hours. Following this protocol, biofilms typically grow to 10^9 CFU/PEEK membrane. PEEK membranes is removed and placed into 2 mL of CAMHB that contain a desired concentration of the test compound. The EBEC is defined as the concentration of antimicrobial required to reduce a biofilm from approximately 10^9 CFU/PEEK membrane to approximately 10^2 CFU/PEEK membrane in a 24-hour period.
EBEC data were collected to determine the efficacy of CZ-52, CZ-58 and traditional antibiotics against high number biofilms containing approximately 10^9 CFU grown on the surface of a polyetheretherketone (PEEK) membrane.

A. baumannii biofilm [5] = test: MBEC, MBEC Inoculation Tray by Innovotech (to 10^2 CFU/peg in 24 hours); assay type: cell-based, Acinetobacter baumannii; conditions: Table 4
Text: To determine the MBEC of each polyamine compound, the MBEC Inoculation Tray by Innovotech, formerly known as the Calgary biofilm device, was used. Within this device, biofilms grow on the surface of polystyrene pegs, 96 of which are attached to a lid. These pegs are inserted into a flat bottom 96-well plate. In this instance, the MBEC of a molecule was defined as the concentration of compound (in μg/mL) required to reduce 10^5 or 10^6 CFU/peg (biofilm levels varied by isolate) to 10^2 CFU/peg in a 24-hour period.
Following the manufacturer's guidelines, biofilms were grown on the surface of each peg by first making a 0.5 McFarland of each isolate. The 0.5 McFarland was diluted 1:100 in CAMHB. Into each well of a flat bottom 96-well plate, 150 μL of broth were pipetted. The plate was shaken at 100 rpm for 24 hours (P. aeruginosa and A. baumannii) or 48 hours (MRSA). The pegs were then placed into a separate flat bottom 96-well plate for 10 seconds with 200 μL of phosphate buffered saline (PBS) in each well to remove nonadherent cells. The lid was then placed into a 96-well plate that contained varying concentrations of antimicrobial with 200 μL per well. The plate was incubated for 24 hours at 37° C. after which time 100 μL of broth were plated on TSA. TSA plates were incubated 24 hours at 37° C. and the number of CFU counted to calculate the CFU/peg. In this instance, the MBEC was defined as the concentration of antimicrobial required to reduce 10^5 or 10^6 CFU/peg to 10^2 CFU/peg in a 24 hour period.
To determine the MBEC, the MBEC Inoculation Tray by Innovotech, formerly known as the Calgary biofilm device, is used. Within this device, biofilms grow on the surface of polystyrene pegs, 96 of which are attached to a lid. These pegs are inserted into a flat bottom 96-well plate. In this instance, the MBEC of a molecule is defined as the concentration of compound required to reduce approximately 10^6 CFU/peg to approximately 10^2 CFU/peg in a 24-hour period.
Following the manufacturer's guidelines, biofilms are grown on the surface of each peg by first making a 0.5 McFarland of A. baumannii. The 0.5 McFarland is diluted 1:100 in CAMHB broth. Into each well of a flat bottom 96-well plate, 150 μL of broth is pipetted. The plate is shaken at 100 rpm for 24 hours. The pegs are placed into a separate flat bottom 96-well plate for 10 seconds with 200 μL of phosphate buffered saline (PBS) in each well to remove nonadherent cells. The lid is placed into a 96-well plate that contains varying concentrations of antimicrobial with 200 μL of broth per well. The plate is incubated for 24 hours at 37° C. after which time 100 μL of broth is plated on TSA. TSA plates is incubated 24 hours at 37° C. and the number of CFU counted to calculate the CFU/peg.
MBEC data were collected using the MBEC Inoculation Tray by Innovotech. The MBEC was defined in these preliminary results as the concentration of antimicrobial required to reduce 10^5 or 10^6 CFU/peg to 10^2 CFU/peg in a 24-hour period.

A. baumannii biofilm [6] = test: EBEC, high number biofilms on PEEK membranes (10^9 to 10^2 CFU/PEEK membrane in 24 hours); assay type: cell-based, Acinetobacter baumannii; conditions: Table 4
Method: as §1, §2
EBEC data were collected to determine the efficacy of CZ-52, CZ-58 and traditional antibiotics against high number biofilms containing approximately 10^9 CFU grown on the surface of a polyetheretherketone (PEEK) membrane. […] In contrast, at 250 μg/mL CZ-52 was able to reduce MRSA biofilms by greater than 7 log10 units in a 24-hour period. Although the MIC of CZ-58 was lower against MRSA compared to A. baumannii, CZ-58 had greater activity against biofilms of A. baumannii than against MRSA biofilms in the EBEC assay. […] Although the MIC of CZ-58 was “high” compared to MICs of traditional antibiotics, the efficacy against biofilms was promising.

biofilm of MRSA = test: Combination treatment: dispersal of MRSA biofilm; assay type: cell-based, methicillin-resistant Staphylococcus aureus; conditions: CZ-7 at […] mixed with chlorhexidine gluconate at […]; biofilm of 10^11 cells; within one hour

SMILES	MBEC, MRSA (MRSA biofilm [1])	MBEC (MRSA biofilm [2])	EBEC (MRSA biofilm [3])	MIC, MRSA (MRSA) [µg/mL]	reduction of MRSA biofilms (MRSA biofilm [4]) [log10 unit]	EBEC, MRSA (MRSA biofilm [4])	reduction of MRSA biofilms (MRSA biofilm [4]; at 25,000 μg/mL) [log10 unit]	MBEC, A. baumannii (A. baumannii biofilm [5])	EBEC, A. baumannii (A. baumannii biofilm [6])	dispersal of MRSA biofilm (biofilm of MRSA)
CN[C@H](CC(C)C)C(=O)N[C@H]1C(=O)N[C@@H](CC(N)=O)C(=O)N[C@H]2C(=O)N[C@H]3C(=O)N[C@H](C(=O)N[C@H](C(=O)O)c4cc(O)cc(O)c4-c4cc3ccc4O)[C@H](O)c3ccc(c(Cl)c3)Oc3cc2cc(c3O[C@@H]2O[C@H](CO)[C@@H](O)[C@H](O)[C@H]2O[C@H]2C[C@](C)(N)[C@H](O)[C@H](C)O2)Oc2ccc(cc2Cl)[C@H]1O [Vancomycin, reference compound]	> 500 μg/mL and > 345 μM	> 500 μg/mL and > 336.50 μM	> 20,000 μg/mL and > 13,460 μM	10 (≈ 6.9 µM)	< 1	> 25,000 μg/mL	< 1	–	–	–
NCCCNCCCNCc1ccccc1 [CZ-7, benzylnorspermidine]	> 500 μg/mL and > 2,259 μM	–	–	–	–	> 5,000 μg/mL and > 22,590 μM	–	> 500 μg/mL and > 2,259 μM	> 10,000 μg/mL and > 45,180 μM	significant dispersal
